Test results taken from US4325947A (priority 1981, dated 1982).
Values after ≈ are worked out from the molar mass of the structure shown. Values joined by “and” are separate entries in the source; they are usually repeats but may differ in a detail not shown here. Equal entries are not always repeated. Where two headings read alike, the source gives them in different places.

Legend:
P388 ascitic leukemia = test: Activity against P388 ascitic leukemia in mice, ip
Description: Activity against P388 ascitic leukemia^1
^1 Mice were injected ip with 10^6 leukemia cells/mouse. Data of
^2 Treatment ip on day 1 after tumor inoculum.
(§1) ^3 Medium survival time of treated animals/medium survival time of […]

L1210 leukemia = test system: L1210 leukemia
From the text: as §1

Gross leukemia = test: Activity against disseminated Gross leukemia in mice, i.v. and oral; details: for T/C % (survival time treated/controls × 100) / Toxic deaths: day 1
From the text: as §1

HeLa cells = HeLa cells cloning efficiency in vitro, treatment for 24 hours; details: for IC50: read-out: ID50
experimental leukemias = test: In vivo antitumor activity/potency versus doxorubicin (general statements); set-up: species or system mice
From the text: In vivo the compound has been compared to doxorubicin against three different experimental leukemias of mice.

[1] = Homo sapiens, HeLa, 24 h, read-out: % of controls (HeLa cells cloning efficiency)

COc1cccc2c1C(=O)c1c(O)c3c(c(O)c1C2=O)C[C@@](O)(C(=O)CO)C[C@@H]3O[C@H]1C[C@H](N)[C@H](O)[C@H](C)O1 [Doxorubicin, doxorubicin, reference compound]
T/C % (survival time treated/controls × 100) (P388 ascitic leukemia; 4.4 mg/kg ip on day 1): 210% and 180% | Toxic deaths (P388 ascitic leukemia; 4.4 mg/kg ip on day 1): 0/16 | T/C % (survival time treated/controls × 100) (P388 ascitic leukemia; 6.6 mg/kg ip on day 1): 220% and 190% | Toxic deaths (P388 ascitic leukemia; 6.6 mg/kg ip on day 1): 0/16 | T/C % (survival time treated/controls × 100) (P388 ascitic leukemia; 10.0 mg/kg ip on day 1): 225% and 220% | Toxic deaths (P388 ascitic leukemia; 10.0 mg/kg ip on day 1): 0/16 | T/C % (survival time treated/controls × 100) (L1210 leukemia; 10 mg/kg iv on day 1): 133% | Toxic deaths (L1210 leukemia; 10 mg/kg iv on day 1): 0/10 | T/C % (survival time treated/controls × 100) (L1210 leukemia; 13 mg/kg iv on day 1): 150% | Toxic deaths (L1210 leukemia; 13 mg/kg iv on day 1): 0/9 | T/C % (survival time treated/controls × 100) (L1210 leukemia; 16.9 mg/kg iv on day 1): 166% | Toxic deaths (L1210 leukemia; 16.9 mg/kg iv on day 1): 1/10 | T/C % (survival time treated/controls × 100) (Gross leukemia; i.v. 13 mg/kg): 200% | Toxic deaths (Gross leukemia; i.v. 13 mg/kg): 0/18 | Toxic deaths (Gross leukemia; i.v. 16.9 mg/kg): 0/18 | T/C % (survival time treated/controls × 100) (Gross leukemia; i.v. 16.9 mg/kg, 16.9 mg/kg): 233% and 216% | activity at 0.0031 µg/mL (HeLa cells; [1]): 102% | activity at 0.0062 µg/mL (HeLa cells; [1]): 68% | activity at 0.0125 µg/mL (HeLa cells; [1]): 44% | IC50 (HeLa cells; Homo sapiens, HeLa, 24 h): ~10 ng/mL (≈ 18.4 nM)

C[C@H]1C[C@@H](N)C[C@H](O[C@H]2C[C@](O)(C(=O)CO)Cc3c(O)c4c(c(O)c32)C(=O)c2ccccc2C4=O)O1 [XOO-0144, 4-demethoxy-4'-deoxydoxorubicin]
T/C % (survival time treated/controls × 100) (P388 ascitic leukemia; 0.04 mg/kg ip on day 1): 130% | T/C % (survival time treated/controls × 100) (P388 ascitic leukemia; 0.12 mg/kg ip on day 1): 170% | T/C % (survival time treated/controls × 100) (P388 ascitic leukemia; 0.25 mg/kg ip on day 1): 205% and 195% | T/C % (survival time treated/controls × 100) (P388 ascitic leukemia; 0.5 mg/kg ip on day 1): 235% | T/C % (survival time treated/controls × 100) (P388 ascitic leukemia; 1 mg/kg ip on day 1): 75% and 90% | Toxic deaths (P388 ascitic leukemia; 1 mg/kg ip on day 1): 7/16 | T/C % (survival time treated/controls × 100) (P388 ascitic leukemia; 5 mg/kg ip on day 1): 55% | Toxic deaths (P388 ascitic leukemia; 5 mg/kg ip on day 1): 8/8 | optimal doses (P388 ascitic leukemia; administered ip): 0.25 to 0.5 mg/kg | potency relative to doxorubicin, ip (P388 ascitic leukemia; administered ip, mice bearing P388 ascitic leukemia): 10-20 times | antitumor activity compared with doxorubicin (P388 ascitic leukemia; ip, 0.25-0.5 mg/kg vs doxorubicin from 4 to 10 mg/kg): antitumor activity of the same order of magnitude as that of doxorubicin | T/C % (survival time treated/controls × 100) (L1210 leukemia; 0.9 mg/kg iv on day 1): 183% | Toxic deaths (L1210 leukemia; 0.9 mg/kg iv on day 1): 0/10 | T/C % (survival time treated/controls × 100) (L1210 leukemia; 1.2 mg/kg iv on day 1): 191% | Toxic deaths (L1210 leukemia; 1.2 mg/kg iv on day 1): 0/10 | T/C % (survival time treated/controls × 100) (L1210 leukemia; 1.56 mg/kg iv on day 1): 116% | Toxic deaths (L1210 leukemia; 1.56 mg/kg iv on day 1): 6/10 | activity against L1210 leukemia in comparison with doxorubicin (summary, words) (L1210 leukemia; in comparison with doxorubicin): more active against L1210 leukemia | tolerated doses (L1210 leukemia; iv): 0.9 mg/kg and 1.2 mg/kg | effectiveness compared with doxorubicin (L1210 leukemia; iv, tolerated doses 0.9 and 1.2 mg/kg vs doxorubicin 13 mg/kg): more effective than doxorubicin | T/C % (survival time treated/controls × 100) (Gross leukemia; i.v. 0.35 mg/kg): 100% | Toxic deaths (Gross leukemia; i.v. 0.35 mg/kg): 0/8 | T/C % (survival time treated/controls × 100) (Gross leukemia; i.v. 0.53 mg/kg): 108% | Toxic deaths (Gross leukemia; i.v. 0.53 mg/kg): 0/8 | T/C % (survival time treated/controls × 100) (Gross leukemia; i.v. 0.8 mg/kg): 116% | Toxic deaths (Gross leukemia; i.v. 0.8 mg/kg): 0/10 | Toxic deaths (Gross leukemia; i.v. 1.2 mg/kg): 0/20 | T/C % (survival time treated/controls × 100) (Gross leukemia; i.v. 1.2 mg/kg, 1.2 mg/kg): 150% and 208% | T/C % (survival time treated/controls × 100) (Gross leukemia; i.v. 1.8 mg/kg): 133% | Toxic deaths (Gross leukemia; i.v. 1.8 mg/kg): 9/10 | T/C % (survival time treated/controls × 100) (Gross leukemia; i.v. 2.7 mg/kg): 116% | Toxic deaths (Gross leukemia; i.v. 2.7 mg/kg): 10/10 | T/C % (survival time treated/controls × 100) (Gross leukemia; oral 2.7 mg/kg): 150% | Toxic deaths (Gross leukemia; oral 2.7 mg/kg): 1/8 | T/C % (survival time treated/controls × 100) (Gross leukemia; oral 5.4 mg/kg): 133% | Toxic deaths (Gross leukemia; oral 5.4 mg/kg): 4/6 | T/C % (survival time treated/controls × 100) (Gross leukemia; oral 10.8 mg/kg): 100% | Toxic deaths (Gross leukemia; oral 10.8 mg/kg): 5/5 | activity by oral route (Gross leukemia; oral, Gross leukemia): active also when given by oral route | potency relative to doxorubicin, iv (experimental leukemias; administered iv): about 10 times | potency in vivo in comparison with doxorubicin (summary, words) (experimental leukemias; both i.p. and i.v. administration): more potent in vivo (both i.p. and i.v. administration) | potency in vivo relative to doxorubicin (experimental leukemias; in vivo, with reference to doxorubicin): about 10 times | activity by oral route (experimental leukemias): active also when administered orally | activity by oral route (experimental leukemias; listed as 4-demethoxy-4'-deoxydoxorubicin): active also when given by oral route | cytotoxicity relative to doxorubicin (HeLa cells; HeLa cells cloning efficiency, more cytotoxic than doxorubicin): about 25 times | activity at 20 pg/mL (HeLa cells; [1]): 102% | activity at 90 pg/mL (HeLa cells; [1]): 72% | activity at 0.00039 µg/mL (HeLa cells; [1]): 69% | activity at 0.0015 µg/mL (HeLa cells; [1]): 26% | activity at 0.0062 µg/mL (HeLa cells; [1]): 1% | activity at 0.025 µg/mL (HeLa cells; [1]): 0% | IC50 (HeLa cells; Homo sapiens, HeLa, 24 h): ~0.4 ng/mL (≈ 0.804 nM) | potency in vitro in comparison with doxorubicin (summary, words) (HeLa cells; in comparison with doxorubicin): more potent in vitro | potency in vitro relative to doxorubicin (HeLa cells; in vitro, with reference to doxorubicin): 10-20 times
